For the assay, the target named is Rho-associated protein kinase 2 (Homo sapiens, UniProt O75116). Nature of the assay: In Vitro Assay: The effectiveness of compounds of the present invention as ROCK inhibitors can be determined in a 30 μL assay containing 20 mM HEPES, pH 7.5, 20 mM MgCl2, 0.015% Brij-35, 4 mM DTT, 5 μM ATP and 1.5 μM peptide substrate (FITC-AHA-AKRRRLSSLRA-OH) (SEQ ID No. 1). Compounds were dissolved in DMSO so that the final concentration of DMSO was <2%, and the reaction was initiated with Rho kinase variants. After incubation, the reaction was terminated by the addition of EDTA and the phosphorylated and non-phosphorylated peptides separated using a LABCHIP® 3000 Reader (Caliper Life Sciences). […] Compounds were tested in dose-response format, and the inhibition of kinase activity was calculated at each concentration of compound. The inhibition data were fit using a curve-fitting program to determine the IC50; i.e., the concentration of compound required to inhibit 50% of kinase activity.
Rho-associated protein kinase 2, sequence (O75116 whole entry, looked up, change not shown): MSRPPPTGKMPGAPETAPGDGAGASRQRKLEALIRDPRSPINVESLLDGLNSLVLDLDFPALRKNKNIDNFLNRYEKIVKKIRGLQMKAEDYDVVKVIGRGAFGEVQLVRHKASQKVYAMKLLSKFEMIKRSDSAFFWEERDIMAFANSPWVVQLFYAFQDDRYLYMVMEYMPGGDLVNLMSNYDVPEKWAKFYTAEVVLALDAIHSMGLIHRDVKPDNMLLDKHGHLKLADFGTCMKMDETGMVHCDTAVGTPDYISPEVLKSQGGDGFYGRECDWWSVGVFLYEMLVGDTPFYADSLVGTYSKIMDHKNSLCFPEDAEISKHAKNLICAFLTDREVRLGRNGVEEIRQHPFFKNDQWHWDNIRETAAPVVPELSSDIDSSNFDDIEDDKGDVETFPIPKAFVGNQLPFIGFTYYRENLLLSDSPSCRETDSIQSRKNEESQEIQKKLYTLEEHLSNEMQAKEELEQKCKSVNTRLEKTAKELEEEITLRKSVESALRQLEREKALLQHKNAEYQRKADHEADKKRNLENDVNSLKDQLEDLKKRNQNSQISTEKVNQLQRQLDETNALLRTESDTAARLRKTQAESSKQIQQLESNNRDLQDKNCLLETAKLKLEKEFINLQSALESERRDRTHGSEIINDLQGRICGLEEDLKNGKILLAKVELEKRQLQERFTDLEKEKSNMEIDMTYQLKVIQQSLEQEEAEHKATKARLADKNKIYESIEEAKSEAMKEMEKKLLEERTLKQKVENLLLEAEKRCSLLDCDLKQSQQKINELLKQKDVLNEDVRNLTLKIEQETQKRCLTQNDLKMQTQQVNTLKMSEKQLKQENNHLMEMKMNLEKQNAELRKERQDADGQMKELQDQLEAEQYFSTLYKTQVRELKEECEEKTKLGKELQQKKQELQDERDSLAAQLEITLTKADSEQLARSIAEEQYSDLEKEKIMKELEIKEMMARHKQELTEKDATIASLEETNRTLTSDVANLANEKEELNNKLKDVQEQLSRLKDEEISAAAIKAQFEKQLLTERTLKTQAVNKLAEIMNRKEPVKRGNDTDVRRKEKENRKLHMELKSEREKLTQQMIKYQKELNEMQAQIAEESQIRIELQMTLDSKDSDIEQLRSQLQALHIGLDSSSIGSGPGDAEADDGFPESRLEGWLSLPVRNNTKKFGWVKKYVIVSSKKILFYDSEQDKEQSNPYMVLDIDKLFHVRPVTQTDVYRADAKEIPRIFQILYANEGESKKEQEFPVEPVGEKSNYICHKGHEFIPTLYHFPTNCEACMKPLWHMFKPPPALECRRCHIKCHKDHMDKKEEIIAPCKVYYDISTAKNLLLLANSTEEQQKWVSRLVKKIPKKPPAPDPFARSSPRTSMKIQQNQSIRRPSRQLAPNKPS

The source of these data is ChEMBL document CHEMBL5729067, “Phenylacetamides as inhibitors of rock” (2022).

For orientation: IC50 means the concentration that inhibits the measured activity by half. For `Cc1sc(C(=O)Cc2ccc(Oc3ncccc3C(N)=O)cc2)nc1-c1ccccc1`, the IC50 is 87 nM.
